Measurements taken from ChEMBL document CHEMBL1821572, “Discovery of a novel series of selective HCN1 blockers” (Bioorg Med Chem Lett, 2011).
pIC50: −log10 of the molar value.

Molecular target: T1, Potassium/sodium hyperpolarization-activated cyclic nucleotide-gated channel 4 (Homo sapiens, UniProt Q9Y3Q4)
T1 sequence (Q9Y3Q4 whole entry): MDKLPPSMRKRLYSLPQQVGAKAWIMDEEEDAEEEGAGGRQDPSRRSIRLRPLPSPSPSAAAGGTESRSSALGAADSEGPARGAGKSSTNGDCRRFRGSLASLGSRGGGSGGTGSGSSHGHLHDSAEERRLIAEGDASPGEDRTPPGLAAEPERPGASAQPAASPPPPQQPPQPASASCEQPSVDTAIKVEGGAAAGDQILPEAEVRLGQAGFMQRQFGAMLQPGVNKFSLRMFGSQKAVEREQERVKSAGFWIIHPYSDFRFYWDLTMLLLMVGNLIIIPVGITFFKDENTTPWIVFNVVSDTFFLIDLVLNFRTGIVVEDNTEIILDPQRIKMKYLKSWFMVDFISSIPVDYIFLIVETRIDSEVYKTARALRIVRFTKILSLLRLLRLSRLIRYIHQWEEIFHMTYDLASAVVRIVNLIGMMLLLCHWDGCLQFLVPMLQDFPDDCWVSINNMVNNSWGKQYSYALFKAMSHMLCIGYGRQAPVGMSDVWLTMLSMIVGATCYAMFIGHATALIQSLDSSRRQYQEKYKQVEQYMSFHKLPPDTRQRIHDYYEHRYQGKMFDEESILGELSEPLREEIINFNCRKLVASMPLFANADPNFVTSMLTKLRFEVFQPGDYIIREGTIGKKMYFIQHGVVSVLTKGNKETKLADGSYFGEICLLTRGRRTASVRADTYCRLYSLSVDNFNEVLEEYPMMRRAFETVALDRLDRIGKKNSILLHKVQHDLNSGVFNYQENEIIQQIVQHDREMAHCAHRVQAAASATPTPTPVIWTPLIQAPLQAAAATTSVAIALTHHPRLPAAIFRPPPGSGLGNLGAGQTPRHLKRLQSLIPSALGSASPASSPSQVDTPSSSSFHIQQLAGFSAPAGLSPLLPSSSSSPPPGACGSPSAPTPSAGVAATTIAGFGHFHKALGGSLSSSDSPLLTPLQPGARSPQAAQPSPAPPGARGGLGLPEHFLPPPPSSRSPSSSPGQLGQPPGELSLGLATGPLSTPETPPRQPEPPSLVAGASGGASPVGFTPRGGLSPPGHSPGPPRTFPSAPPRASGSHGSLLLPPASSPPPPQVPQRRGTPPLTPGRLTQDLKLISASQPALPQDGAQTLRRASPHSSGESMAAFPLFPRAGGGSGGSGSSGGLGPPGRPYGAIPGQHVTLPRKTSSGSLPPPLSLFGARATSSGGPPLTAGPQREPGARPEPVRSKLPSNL
Assay: Inhibition of human HCN4 heterologously expressed in HEK-293 cells after 30 mins by VIPR assay
Type: cell-based, HEK293

Work on CCOc1ccccc1C(=O)NCC1(N2CCNCC2)CCCCC1 yielded a pIC50 of 5.40.
